Legend:
rat [1] = conditions: Multigenerational reproductive toxicity study; fischer; Inhalation; Whole-Body; dose end: 2 generation; group: parental; systemic / in life observation / body weight / body weight
rat [2] = conditions: Combined chronic toxicity/carcinogenicity, wistar, Inhalation, Whole-Body, dose end: 125 week, group: systemic
rat [3] = conditions: Prenatal developmental toxicity study, fischer, Inhalation, Whole-Body, dose end: 15 GD
rat [4] = conditions: Neurotoxicity screening battery; fischer; Inhalation; Whole-Body; dose end: 24 week; group: cannot be grouped; systemic / in life observation / body weight / body weight
rat [5] = conditions: Subchronic oral toxicity in rodents, other, Feed, dose end: 90 day, group: systemic
dog [6] = conditions: Subchronic oral toxicity in nonrodent, beagle, Capsule, dose end: 90 day, group: systemic
rat [7] = conditions: Prenatal developmental toxicity study; wistar; Oral; Gavage/Intubation; dose end: 18 GD; group: developmental; systemic / organ weight / epididymis / absolute + systemic / organ weight / liver / absolute
rat [8] = conditions: Prenatal developmental toxicity study; wistar; Oral; Gavage/Intubation; dose end: 18 GD; group: developmental; systemic / organ weight / epididymis / absolute + systemic / organ weight / liver / absolute; remark: listed apart in the source
mouse [9] = conditions: Carcinogenicity; cd1; Oral; Feed; dose end: 79 week; group: systemic; systemic / hematology / leukocyte (wbc) count differential / leukocyte (wbc) + systemic / hematology / lymphocyte / lymphocyte + systemic / …
dog [10] = conditions: Subchronic oral toxicity in nonrodent, beagle, Feed, dose end: 90 day, group: systemic
rat [11] = conditions: Subchronic oral toxicity in rodents, sprague dawley, Feed, dose end: 90 day, group: systemic
dog [12] = conditions: Chronic toxicity; beagle; Oral; Feed; dose end: 12 month; group: systemic; systemic / clinical chemistry / beta globulin / beta globulin + systemic / hematology / erythrocyte (rbc) count differential / erythrocyte (…
rat [13] = conditions: Multigenerational reproductive toxicity study; long evans; Oral; Gavage/Intubation; dose end: 1 generation; group: offspring; systemic / organ weight / vagina / absolute + systemic / organ weight / vagina / relative to body weight
rat [14] = conditions: Prenatal developmental toxicity study, sprague dawley, Oral, Gavage/Intubation, dose end: 15 GD
rat [15] = conditions: Prenatal developmental toxicity study; sprague dawley; Oral; Feed; dose end: 15 GD; group: maternal; systemic / in life observation / body weight / body weight gain + systemic / in life observation / food consumption / food consumption
mouse [16] = conditions: Carcinogenicity, b6c3f1, Oral, Feed, dose end: 24 month
mouse [17] = conditions: Carcinogenicity; b6c3f1; Oral; Feed; dose end: 103 week; group: systemic; systemic / in life observation / body weight / body weight
rat [18] = conditions: Subchronic oral toxicity in rodents, fischer, Feed, dose end: 13 week, group: systemic
rat [19] = conditions: Carcinogenicity; fischer; Oral; Feed; dose end: 103 week; group: systemic; systemic / in life observation / body weight / body weight + systemic / pathology microscopic / eye / cataract + systemic / pathology …
mouse [20] = conditions: Sub-acute repeat dose toxicity; b6c3f1; Oral; Feed; dose end: 14 day; group: systemic; systemic / in life observation / clinical signs / fur (altered appearance) + systemic / in life observation / mortality / mortality
rat [21] = conditions: Sub-acute repeat dose toxicity; fischer; Oral; Feed; dose end: 14 day; group: systemic; systemic / in life observation / body weight / body weight gain + systemic / in life observation / clinical signs / urogenital staining + …
[22] = systemic / in life observation / body weight / body weight
[23] = group: developmental, developmental / developmental malformation / bone / supernumerary
[24] = group: maternal, systemic / in life observation / body weight / body weight gain + systemic / in life observation / food consumption / food consumption
[25] = group: maternal, systemic / in life observation / body weight / body weight gain + systemic / in life observation / food consumption / food consumption + …
[26] = systemic / in life observation / body weight / body weight gain
[27] = systemic / in life observation / body weight / body weight gain + systemic / pathology microscopic / kidney / casts + systemic / pathology …
[28] = systemic / clinical chemistry / [other] / [other] + systemic / clinical chemistry / bilirubin / total bilirubin + systemic / clinical …
[29] = systemic / in life observation / body weight / body weight gain + systemic / organ weight / spleen / relative to body weight + systemic / …
[30] = group: developmental, systemic / in life observation / body weight / fetal weight
[31] = group: cholinesterase, cholinesterase / cholinesterase / cholinesterase / brain cholinesterase (che)
[32] = group: cholinesterase, cholinesterase / cholinesterase / cholinesterase / brain cholinesterase (che) + cholinesterase / cholinesterase / cholinesterase / plasma …
[33] = group: systemic, systemic / in life observation / clinical signs / convulsions + systemic / pathology gross / lymph node / enlarged + systemic / pathology …
[34] = systemic / in life observation / body weight / body weight gain + systemic / in life observation / clinical signs / skin discoloration + …

In the case of `CC1CO1` (stereo unspecified) [1,2-Propylene oxide], the LEL (rat [1]) is reported as 30 ppm, the LOAEL (rat [1]) is reported as > 300 ppm and the NEL (rat [1]) is reported as < 30 ppm. The NOAEL (rat [1]) was ≥ 300 ppm, the LEL (rat [2]; [22]) was 30 ppm and the NEL (rat [2]; [22]) was < 30 ppm. For the same compound, the LOAEL (rat [2]; systemic / pathology microscopic / nose / [other] + systemic / pathology microscopic / nose / hyperplasia) was 100 ppm, the NOAEL (rat [2]; systemic / pathology microscopic / nose / [other] + systemic / pathology microscopic / nose / hyperplasia + systemic / pathology microscopic…) was 30 ppm and the LEL (rat [3]; [23]) was 500 ppm. It also gave an LOAEL (rat [3]; [23]) of 500 ppm, an NEL (rat [3]; [23]) of 300 ppm and an NOAEL (rat [3]; [23]) of 300 ppm. The LOAEL (rat [3]; [24]) was 500 ppm, the LEL (rat [3]; [25]) was 500 ppm and the NEL (rat [3]; [25]) was 300 ppm. For the same compound, the NOAEL (rat [3]; [25]) was 300 ppm, the LEL (rat [4]) was 100 ppm and the LOAEL (rat [4]) was > 300 ppm. For the same compound, the NEL (rat [4]) was 30 ppm and the NOAEL (rat [4]) was ≥ 300 ppm.

In the case of `CCc1occc(=O)c1O` [2-Ethyl-3-hydroxy-4H-pyran-4-one], the LEL (rat [5]; [26]) is reported as 500 mg/kg/day, the LOAEL (rat [5]; [27]) is reported as > 1000 mg/kg/day and the NEL (rat [5]; [27]) is reported as 250 mg/kg/day. For the same compound, the NOAEL (rat [5]; [27]) was ≥ 1000 mg/kg/day, the LOAEL (dog [6]; [28]) was > 500 mg/kg/day and the NOAEL (dog [6]; [28]) was ≥ 500 mg/kg/day. It also gave an NEL (dog [6]; systemic / clinical chemistry / bilirubin / total bilirubin + systemic / hematology / anemia / anemia - hemolytic + systemic / pathology …) of 125 mg/kg/day and an LEL (dog [6]; systemic / pathology microscopic / liver / hemosiderosis) of 250 mg/kg/day.

For `CCCCCCCCCc1ccc(O)cc1` [4-Nonylphenol], the LEL (rat [7]) was 15 mg/kg/day, the LOAEL (rat [7]) was > 75 mg/kg/day and the NEL (rat [7]) was 3 mg/kg/day. For the same compound, the NOAEL (rat [7]) was ≥ 75 mg/kg/day, the LEL (rat [8]) was 15 mg/kg/day and the LOAEL (rat [8]) was > 75 mg/kg/day. For the same compound, the NEL (rat [8]) was 3 mg/kg/day and the NOAEL (rat [8]) was ≥ 75 mg/kg/day.

`COc1ccc(-c2ccccc2)cc1NNC(=O)OC(C)C` [Bifenazate] was tested, and the LEL (mouse [9]) was 15.4 mg/kg/day, the LOAEL (mouse [9]) was 15.4 mg/kg/day and the NEL (mouse [9]) was 1.5 mg/kg/day. It also gave an NOAEL (mouse [9]) of 1.5 mg/kg/day, an LOAEL (dog [10]; systemic / hematology / mean corpuscular (cell) volume (mcv) / mean corpuscular (cell) volume (mcv) + systemic / hematology / mean …) of 10.4 mg/kg/day and an LEL (dog [10]; [26]) of 0.9 mg/kg/day. For the same compound, the NEL (dog [10]; [26]) was < 0.9 mg/kg/day, the NOAEL (dog [10]; systemic / in life observation / body weight / body weight gain + systemic / hematology / mean corpuscular (cell) volume (mcv) / mean …) was 0.9 mg/kg/day and the LEL (rat [11]; systemic / clinical chemistry / protein / protein) was 13.8 mg/kg/day. For the same compound, the NEL (rat [11]; systemic / clinical chemistry / protein / protein + systemic / hematology / erythrocyte (rbc) count differential / erythrocyte (rbc) + …) was 2.7 mg/kg/day, the LOAEL (rat [11]; [29]) was 16.3 mg/kg/day and the NOAEL (rat [11]; [29]) was 3.2 mg/kg/day. It also gave an LEL (dog [12]) of 8.95 mg/kg/day, an LOAEL (dog [12]) of 8.95 mg/kg/day and an NEL (dog [12]) of 1.01 mg/kg/day. The NOAEL (dog [12]) was 1.01 mg/kg/day.

In the case of `[O][Cl+][O-]` [Chlorine dioxide], the LEL (rat [13]) is reported as 10 mg/kg/day, the LOAEL (rat [13]) is reported as > 10 mg/kg/day and the NEL (rat [13]) is reported as 5 mg/kg/day. The NOAEL (rat [13]) was ≥ 10 mg/kg/day.

In the case of `COP(=S)(OC)SCN1C(=O)c2ccccc2C1=O` [Phosmet], the LEL (rat [14]; [30]) is reported as 5 mg/kg/day, the LOAEL (rat [14]; [30]) is reported as > 30 mg/kg/day and the NEL (rat [14]; [30]) is reported as < 5 mg/kg/day. For the same compound, the NOAEL (rat [14]; [30]) was ≥ 30 mg/kg/day, the LEL (rat [14]; [24]) was 20 mg/kg/day and the LOAEL (rat [14]; [25]) was > 30 mg/kg/day. The NEL (rat [14]; [25]) was 10 mg/kg/day, the NOAEL (rat [14]; [25]) was ≥ 30 mg/kg/day and the LEL (rat [15]) was 27 mg/kg/day. For the same compound, the LOAEL (rat [15]) was > 29 mg/kg/day, the NEL (rat [15]) was 22 mg/kg/day and the NOAEL (rat [15]) was ≥ 29 mg/kg/day. For the same compound, the LOAEL (mouse [16]; [31]) was 1 mg/kg/day, the NOAEL (mouse [16]; [31]) was < 1 mg/kg/day and the LEL (mouse [16]; [32]) was 1 mg/kg/day. For the same compound, the NEL (mouse [16]; [32]) was < 1 mg/kg/day, the LOAEL (mouse [16]; group: systemic, systemic / in life observation / clinical signs / convulsions) was 4 mg/kg/day and the LEL (mouse [16]; [33]) was 1 mg/kg/day. The NEL (mouse [16]; [33]) was < 1 mg/kg/day and the NOAEL (mouse [16]; group: systemic, systemic / in life observation / clinical signs / convulsions + systemic / pathology microscopic / liver / hepatocellular adenoma + systemic…) was 1 mg/kg/day.

With `CCCOC(=O)c1cc(O)c(O)c(O)c1` [Propyl gallate] the LEL (mouse [17]) was 900 mg/kg/day, the LOAEL (mouse [17]) was 900 mg/kg/day and the NEL (mouse [17]) was < 900 mg/kg/day. For the same compound, the NOAEL (mouse [17]) was < 900 mg/kg/day, the LEL (rat [18]; [26]) was 625 mg/kg/day and the LOAEL (rat [18]; [26]) was 625 mg/kg/day. For the same compound, the NEL (rat [18]; [34]) was 300 mg/kg/day, the NOAEL (rat [18]; [34]) was 300 mg/kg/day and the LEL (rat [19]) was 300 mg/kg/day. The LOAEL (rat [19]) was 300 mg/kg/day, the NEL (rat [19]) was < 300 mg/kg/day and the NOAEL (rat [19]) was < 300 mg/kg/day. For the same compound, the LEL (mouse [20]) was 7500 mg/kg/day, the LOAEL (mouse [20]) was > 15000 mg/kg/day and the NEL (mouse [20]) was 3750 mg/kg/day. The NOAEL (mouse [20]) was ≥ 15000 mg/kg/day, the LEL (rat [21]) was 2500 mg/kg/day and the LOAEL (rat [21]) was > 5000 mg/kg/day. The NEL (rat [21]) was 1250 mg/kg/day and the NOAEL (rat [21]) was ≥ 5000 mg/kg/day.
